From patent US20100178271A1, “Combination Therapy” (GENZYME CORPORATION, priority 2006, published 2010)

Legend:
pre-B-ALL cells = details: in vitro, cited from earlier work
[1] = tested on: hematopoietic stem and progenitor cells (HSPC), CFU-GM; test: CFU-GM mobilization into peripheral blood, BALB/c mice
[2] = tested on: collagen-induced arthritis; details: mice; cited from earlier work
[3] = tested on: hematopoietic stem and progenitor cells (HSPC), CFU-GM; test: CFU-GM mobilization into peripheral blood, FancC −/− mice; assay type: in vivo
[4] = tested on: hematopoietic stem and progenitor cells (HSPC), CFU-GM; test: CFU-GM mobilization into peripheral blood, +/+ C57B1 (wild type) mice; assay type: in vivo; details: +/+ C57B1 controls; G-CSF alone regimen

c1cc(CN2CCCNCCNCCCNCC2)ccc1CN1CCCNCCNCCCNCC1 [AMD3100, 1,1′-[1,4-phenylene-bis(methylene)]-bis-1,4,8,11-tetraazacyclotetradecane]
effect on cytotoxic and antiproliferative effects of vincristine and dexamethasone (pre-B-ALL cells; pre-B-ALL cells): enhanced
SDF-1 induced chemotaxis of pre-B-ALL cells into bone marrow stroma layers (pre-B-ALL cells): blocked
CFU-GM/mL blood mobilized ([1]; blood harvested 60 min after AMD (5 mg/kg SC), alone or on day 5 after G-CSF regimen): 991±121 CFU-GM/mL blood
effect in collagen-induced arthritis models [2]: protective effects

GROβ: recombinant human GROβ, chemokine, CXCR2 agonist
CFU-GM mobilization in FancC −/− mice relative to +/+ controls ([3]; FancC −/− vs +/+ C57B1): lower in FancC −/− mice
CFU-GM/mL blood mobilized ([1]; blood harvested 15 min after GROβ (2.5 mg/kg SC) or GROβ+AMD, alone or on day 5 after G-CSF regimen): 2562±396 CFU-GM/mL blood

B1: G-CSF: recombinant human Granulocyte-Colony Stimulating Factor (protein, UniProt P09919 31-207, looked up)
Granulocyte …: TPLGPASSLPQSFLLKCLEQVRKIQGDGAALQEKLVSECATYKLCHPEELVLLGHSLGIPWAPLSSCPSQALQLAGCLSQLHSGLFLYQGLLQALEGISPELGPTLDTLQLDVADFATTIWQQMEELGMAPALQPTQGAMPAFASAFQRRAGGVLVASHLQSFLEVSYRVLRHLAQP
CFU-GM mobilized [4]: 1451±80
CFU-GM mobilized ([3]; FancC −/− mice, G-CSF alone regimen): 858±21
mobilization lower in FancC −/− mice compared to +/+ controls ([3]; FancC −/− vs +/+ C57B1): 45%
CFU-GM/mL blood mobilized ([1]; G-CSF alone 100 ug/kg/day, bid, SC×4 days): 4362±996 CFU-GM/mL blood
